The structures appear in SMILES notation.

The test system of assay [1] is dental plaque formation. Nature of the assay: 24-hour plaque accumulation model, direct application to the teeth with a dental swab. It is filed as in vivo, dog. The conditions noted are these: dogs. How it is done: Ascorbyl palmitate was assessed for its ability to inhibit dental plaque in 24-hour plaque accumulation model, according to a modification of the method of […] et al. ([…] et al. (2007) J. Vet. Dent. 24(1): 14-20), in which the compound to be tested is directly applied to the teeth as a solution using a dental swab as applicator, and the dental plaque accumulation time was set at 24 hours. A solution of ascorbyl palmitate (0.3 g in 10 mL soybean oil) was administered to the cleaned buccal tooth and gingival surfaces of each dog using a dental swab, in such a manner that 0.3 g of ascorbyl palmitate was applied. Control animals were treated with soybean oil alone. Twenty-four hours after application, the accumulation of dental plaque was quantitatively evaluated using a standardized method designated as the gingival contour plaque index (“GCPI”). […] The GCPI uses a scale of 0-100%.

In assay [2] the test system is dental plaque formation. Nature of the assay: 8-day GCPI dental plaque quantification model, feeding food coated with ascorbyl palmitate solution. The class given is in vivo, dogs. The conditions noted are these: four days. How it is done: Ascorbyl palmitate was assessed for its ability to inhibit dental plaque formation when applied indirectly, i.e., by feeding animals a pet food composition as described. In this experiment, the 8-day GCPI dental plaques quantification model of […] et al. was used ([…] et al. (2007) J. Vet. Dent. 24(1): 14-20). The teeth of the test animals are cleaned at the beginning of the study, after which the animals were fed either a control food (a commercially-available canine pet food composition) or the same food upon which a solution of ascorbyl palmitate in soybean oil was sprayed to a final concentration (w/w) of 0.1% of the total weight of the food. The food coated with the ascorbyl palmitate solution was fed to dogs over a period of four days and dental plaque accumulation was quantified and compared with their dental plaque accumulation while on the control food. […] The GCPI uses a scale of 0-100%.

For the molecule `CCCCCCCCCCCCCCCC(=O)OC[C@H](O)[C@H]1OC(=O)C(O)=C1O` [ascorbyl palmitate], the “improvement in plaque accumulation versus soybean oil control” value with dental plaque formation [1] (0.3 g applied directly, 24 hours) came out at 27.8%. In addition, the “Plaque accumulation average score (GCPI)” value worked out at 18.9±9% in the assay with dental plaque formation [1] (0.3 g in 10 mL soybean oil applied to cleaned buccal tooth and gingival surfaces, 24 hours after application, GCPI scale 0-100%, soybean oil control 24.9±9.4); 53.7±12.1% in the assay on dental plaque formation [2] (dogs fed food sprayed with ascorbyl palmitate in soybean oil to 0.1% (w/w) of the food, GCPI scale 0-100%, control food 68.2±11.9). The “improvement in plaque accumulation versus control food” value in the assay on dental plaque formation [2] (dogs, food with 0.1% (w/w) ascorbyl palmitate) is reported as 21.3%.

Source of the values: patent US20140348897A1, “TREATMENT OR REDUCTION OF DENTAL CONDITIONS WITH ASCORBYL ESTERS” (HILL'S PET NUTRITION, INC., priority 2011, published 2014).
